Test results: paper PMC7142784, “Antimalarial Peptide and Polyketide Natural Products from the Fijian Marine Cyanobacterium Moorea producens” (Marine Drugs, 2020)
pEC50: −log10 of the molar value. Where two headings read alike, the source gives them in different places.

Key:
HepG2 cells = experiment: HepG2 cytotoxicity; assay type: cell-based, human; conditions: for HepG2 Cytotoxicity, half-maximal cytotoxicity concentration: HepG2 cells
Protocol: A previously described method was utilized to evaluate cytotoxicity against HepG2 and HEK293T cells as a measure of general human toxicity [52]. Assay data generated for Plasmodium was analyzed with a Genedata Screener (v13.0-Standard). Inhibitors (puromycin for cytotoxicity and atovaquone for liver-stage parasites) were subtracted from neutral controls to normalize data. The Smart Fit function of the Genedata Analyzer generated dose-response curves that were used to calculate the half-maximal effective concentrations (EC50).

HEK293T cells = experiment: HEK293T cytotoxicity; conditions: for HEK293T Cytotoxicity, half-maximal cytotoxicity concentration: HEK293T cells
Protocol: A previously described method was utilized to evaluate cytotoxicity against HepG2 and HEK293T cells as a measure of general human toxicity. Assay data generated for Plasmodium was analyzed with a Genedata Screener (v13.0-Standard). Inhibitors (puromycin for cytotoxicity and atovaquone for liver-stage parasites) were subtracted from neutral controls to normalize data. The Smart Fit function of the Genedata Analyzer generated dose-response curves that were used to calculate the half-maximal effective concentrations (EC50).

[1] = tested on: asexual blood-stage P. falciparum strain Dd2L; experiment: asexual blood-stage P. falciparum assay with SYBR Green detection; assay type: cell-based, Plasmodium falciparum; conditions: for blood-stage antimalarial activity (in words): P. falciparum; for pEC50: Plasmodium falciparum, 72 h
Protocol: A standard method for evaluating antimalarial activity with asexual blood-stage P. falciparum and SYBR Green detection was used to assess the potency of extracts, fractions, and compounds [50]. Screening media was prepared from complete media supplemented with 0.05% Albumax II (but without human serum). Dr. David Fidock of Columbia University provided P. falciparum strain Dd2L, which was cultured with fresh O+ erythrocytes (TSRI Normal Blood Donation). Compounds were transferred to assay plates using a Labcyte ECHO acoustic liquid handler. Fresh and parasitized erythrocytes were prepared in screening media before inoculating plates (Multi-Flo; BioTek, VT) with a final hematocrit of 2.5% and a final parasitemia of 0.3%. The assay plates were incubated for 72 h in a chamber at 37 °C with a low oxygen gas formulation with daily gas exchanges. After incubation, a Multi-Flo liquid dispenser transferred SYBR Green lysis buffer to the wells, and the plates were incubated for another 24 h at room temperature to achieve optimal development of fluorescence signal, which was read by an Envision Multimode Reader (PerkinElmer, MA).

[2] = tested on: liver-stage P. berghei (Pb-Luc sporozoites in HepG2 cells); experiment: microbe, parasite or virus in culture; assay type: cell-based, Plasmodium berghei; conditions: read-out: Liver-Stage P. berghei half-maximal effective concentration (EC50)
Protocol: Activity against liver-stage P. berghei was quantified for extracts, fractions, and pure compounds using a slightly modified 48 h luminescence-based assay. The salivary gland of infected Anopheles stephensi was dissected to harvest P. berghei-ANKA-GFP-LucSMCON (Pb-Luc) sporozoites (originally received from Dr. Ana Rodriguez of NYU School of Medicine; last round of testing to evaluate pure 1, 3–5 used infected mosquitoes from Elizabeth Winzeler at UCSD and Dennis Kyle at UGA) which were filtered through a 20 μm nylon net filter twice (Steriflip, Millipore, MA), counted with a hemocytometer, and adjusted to achieve a final concentration of 200 sporozoites/1 μL in the assay media (DMEM without Phenol Red (Life Technologies, CA), 5% FBS, and 5 × Pen−Strep and glutamine (Life Technologies, CA)). A Multi-Flo (BioTek, VT) with a 1 μL cassette was used to transfer purified sporozoites, 1 × 10^3 sporozoites per well (5 μL), to assay plates containing HepG2 cells. After incubation at 37 °C for 48 h, a bioluminescence measurement was taken to assess the liver-stage growth. More specifically, media was removed by inverting the plates, and spinning them at 150 × g for 30 s, and 2 μL per well of BrightGlo (Promega, WI) was added for quantification of Pb-Luc viability. The luminescence was measured immediately after addition of the luminescence reagent using an Envision Multilabel Reader (PerkinElmer, MA).

rabbit muscle actin = target: T1, rabbit muscle actin (Oryctolagus cuniculus, UniProt P68135); experiment: actin polymerization assay (pyrene-labeled rabbit muscle actin); assay type: biochemical
T1 construct: purchased Abcam ab239724
From the text: Of the proteins predicted to bind to kakeromamide (1), actin and sortilin were deemed worthy of further evaluation given their higher predicted binding values. However, no in vitro sortilin assay is available. In contrast, actin polymerization assays are frequently employed to assess agents that affect actin dynamics, albeit using mammalian homologs of actin. Since 1 was predicted to bind to both Plasmodium and mammalian actin proteins but only mammalian actin assays are commercially available, an actin polymerization assay that uses pyrene-labeled rabbit muscle actin was employed. Several natural products are known to disrupt actin’s function by either inhibiting or stabilizing polymerization, which could arise from ligand binding. Since apicomplexan actins (including those of Plasmodium) and mammalian actins are relatively divergent, Plasmodium actin might be a useful molecular target. […] Similar activity by 1 could be one possible explanation for the observed increase in actin polymerization with increasing concentrations of 1. Although 1 appears to impact mammalian actin polymerization, future tests evaluating the impact of 1 on Plasmodium actin function would be worthwhile in order to further elucidate whether interactions with actin are relevant to this natural product’s mechanism of action on the malaria parasite.
The computationally predicted binding of 1 to actin was experimentally evaluated using a rabbit muscle actin polymerization assay kit from Abcam (kit ab239724) using the manufacturer’s protocol. Mean signal for n = 3 (actin polymerization control, solvent control, and background) or n = 2 (four different concentrations of latrunculin A and kakeromamide B) replicates was acquired for time points taken every 30 s for 1 h on a Synergy H4 plate reader. The results were plotted in GraphPad Prism 8 with an exponential plateau curve.

[3] = read-out: Blood-Stage P. falciparum half-maximal effective concentration (EC50), asexual blood-stage, strain Dd2L, 72 h, SYBR Green
[4] = Plasmodium berghei, HepG2, 48 h, sporozoites from University of California San Diego (UCSD), 48 h
[5] = Plasmodium berghei, HepG2, 48 h, sporozoites from the University of Georgia (UGA), 48 h
[6] = Plasmodium berghei, HepG2, 48 h

Compound: CO[C@@H]1[C@@H](OC)[C@H](C)O[C@@H](O[C@@H]2C[C@@H]3CC[C@H](C)[C@@H](O)C[C@](C)(CC/C=C/C=C/Br)OC(=O)C[C@](O)(C2)O3)[C@@H]1OC [Compound 4, 18E-lyngbyaloside C]
- HepG2 Cytotoxicity, half-maximal cytotoxicity concentration (HepG2 cells): 17 µM
- HEK293T Cytotoxicity, half-maximal cytotoxicity concentration (HEK293T cells): >31 µM
- blood-stage antimalarial activity (in words) [1]: inactive
- pEC50 [1, 3]: < 4.72
- pEC50 [2, 4]: < 4.80
- pEC50 [2, 5]: 5.15

Compound: OC(c1cc(C(F)(F)F)nc2c(C(F)(F)F)cccc12)C1CCCCN1 (stereo not shown) [mefloquine, reference compound]
- pEC50 [1, 3]: 8.54

Compound: CCCCCC1NC(=O)c2csc(n2)C(C)NC(=O)C(Cc2ccc(OC)cc2)N(C)C(=O)C(Cc2ccc(OC)cc2)N(C)C(=O)C(C(C)C)NC(=O)C1C (stereo not shown) [Compound 1, kakeromamide B]
- effect on mammalian actin polymerization (in words) (rabbit muscle actin; dose dependence): stimulated actin polymerization in a dose-dependent manner
- effect on actin polymerization relative to controls (rabbit muscle actin; highest tested concentration, 25 µM, Figure S23): enhancing actin polymerization
- effect on actin polymerization relative to controls (rabbit muscle actin; lowest tested concentration, 0.025 µM, Figure S23): moderately suppressed polymerization
- HepG2 Cytotoxicity, half-maximal cytotoxicity concentration (HepG2 cells): >23 µM
- cytotoxicity against HepG2 / human liver cells (in words) (HepG2 cells; HepG2 human cell line): did not exhibit toxicity
- HEK293T Cytotoxicity, half-maximal cytotoxicity concentration (HEK293T cells): >23 µM
- cytotoxicity against HEK293T (in words) (HEK293T cells; HEK293T human cell line): did not exhibit toxicity
- blood-stage antimalarial activity (in words) [1]: only moderately active
- pEC50 [1, 3]: 5.05
- pEC50 [2, 4]: < 4.92
- pEC50 [2, 5]: 4.96

Compound: O=C1C(O)=C([C@H]2CC[C@H](c3ccc(Cl)cc3)CC2)C(=O)c2ccccc21 [Atovaquone, reference compound]
- HEK293T Cytotoxicity, half-maximal cytotoxicity concentration (HEK293T cells): >2.0 µM
- pEC50 [2, 4]: 8.43
- pEC50 [2, 5]: 8.77
- pEC50 ([2]; Plasmodium berghei, HepG2, 48 h, sporozoites sourced from New York University (NYU) School of Medicine, 48 h): > 9.55

Compound: CO[C@@H]1[C@@H](OC)[C@H](C)O[C@@H](O[C@@H]2C[C@H]3O[C@@](O)(C2)[C@H](C)C(=O)O[C@@H](/C=C/C=C/Br)C[C@@H](C)/C=C\C[C@H](O)[C@@H]3C)[C@@H]1OC [Compound 5, lyngbyaloside]
- HepG2 Cytotoxicity, half-maximal cytotoxicity concentration (HepG2 cells): >13 µM
- HEK293T Cytotoxicity, half-maximal cytotoxicity concentration (HEK293T cells): >13 µM
- blood-stage antimalarial activity (in words) [1]: inactive
- pEC50 [1, 3]: < 5.10
- pEC50 [2, 4]: < 5.20
- pEC50 [2, 5]: 5.35

Compound: CCC[C@H]1NC(=O)c2csc(n2)[C@H](C)NC(=O)[C@H](C(C)C)N(C)C(=O)[C@H](Cc2ccccc2)N(C)C(=O)[C@H](C)OC(=O)[C@@H]1C [Compound 2, ulongamide A]
- HEK293T Cytotoxicity, half-maximal cytotoxicity concentration (HEK293T cells): >4.8 µM
- pEC50 ([1]; read-out: Blood-Stage P. falciparum half-maximal effective concentration (EC50)): 6.00
- pEC50 [2, 6]: < 5.40

Compound: CC[C@H](C)[C@@H]1NC(=O)CNC(=O)c2csc(n2)[C@H](C(C)(C)O)OC(=O)C(C)(C)[C@H](CCCC(C)(Cl)Cl)OC(=O)c2csc1n2 [Compound 3, lyngbyabellin A]
- HepG2 Cytotoxicity, half-maximal cytotoxicity concentration (HepG2 cells): 3.3 µM
- selectivity index for Plasmodium versus HepG2 (HepG2 cells; blood-stage P. falciparum versus human liver carcinoma cells (HepG2)): 2,200
- HEK293T Cytotoxicity, half-maximal cytotoxicity concentration (HEK293T cells): 19 µM
- selectivity index for Plasmodium versus HEK293T (HEK293T cells; blood-stage P. falciparum versus normal kidney epithelial cells (HEK293T)): 13,000
- pEC50 [1, 3]: 8.82
- pEC50 [2, 6]: < 5.00
- pEC50 ([2]; sporozoites from University of California San Diego (UCSD), 48 h): < 5.00

Compound: C/C1=C/C(=O)O[C@@H]2C[C@@H](CC[C@H](C)/C=C\C=C\CC1)O[C@@](O)([C@@H]1CSC(=O)N1)C2 [latrunculin A, reference compound]
- concentrations at which actin polymerization was suppressed (rabbit muscle actin; Figure S23): above 1.2 µM

Compound: CC1(C)c2nc(-c3ccc(F)cc3)c(Nc3ccc(F)cc3)n2CCN1C(=O)CN [ganaplacide, reference compound]
- pEC50 [1, 3]: 8.23
